# Tests used:
# Experiment in all cases: relative viability (nuclei count vs DMSO), 5 days (fraction); higher = more cells survive
# Dovitinib = compound: CN1CCN(c2ccc3nc(-c4c(N)c5c(F)cccc5[nH]c4=O)[nH]c3c2)CC1 [Dovitinib]
# In short: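 Viability was defined as treated-well nuclei divided by vehicle-well nuclei, with the median taken over replicate plates. Cells from lung cancer lines sat overnight at 37 °C in 1536-well plates, received five √10-spaced library-drug doses by pinning on vehicle-anchored plates, and grew 5 days without medium change before one-step fixation, permeabilisation and Hoechst staining, 4× imaging and MetaXpress nuclear counts. Only plates with control CV under 25% and at least one doubling were kept.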
# Dovitinib + Trametinib = compound: CN1CCN(c2ccc3nc(-c4c(N)c5c(F)cccc5[nH]c4=O)[nH]c3c2)CC1 [Dovitinib] + CC(=O)Nc1cccc(-n2c(=O)n(C3CC3)c(=O)c3c(Nc4ccc(I)cc4F)n(C)c(=O)c(C)c32)c1 [Trametinib] (partner 0.02 µM)
# In short: (§1)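 For relative viability, nuclei counts in treated wells were divided by those in vehicle wells. Lung cancer cell lines had been pin-tool dosed in 1536-well plates the day after seeding and cultured for 5 days, then fixed and stained in one step (final 0.05% Triton X-100, 1% formaldehyde, 1 ug/ml Hoechst) and imaged at 4×. Doses were one drug alone or a fixed anchor-drug dose plus five library-drug doses (not always all listed) in √10 steps, and values are duplicate-plate medians.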
# Dovitinib + Palbociclib = compound: CN1CCN(c2ccc3nc(-c4c(N)c5c(F)cccc5[nH]c4=O)[nH]c3c2)CC1 [Dovitinib] + CC(=O)c1c(C)c2cnc(Nc3ccc(N4CCNCC4)cn3)nc2n(C2CCCC2)c1=O [Palbociclib] (partner 0.5 µM)
# In short: as §1
# Dovitinib + Luminespib = compound: CN1CCN(c2ccc3nc(-c4c(N)c5c(F)cccc5[nH]c4=O)[nH]c3c2)CC1 [Dovitinib] + CCNC(=O)c1noc(-c2cc(C(C)C)c(O)cc2O)c1-c1ccc(CN2CCOCC2)cc1 [Luminespib] (partner 0.01 µM)
# In short: as §1
# Dovitinib + Foretinib = compound: CN1CCN(c2ccc3nc(-c4c(N)c5c(F)cccc5[nH]c4=O)[nH]c3c2)CC1 [Dovitinib] + COc1cc2c(Oc3ccc(NC(=O)C4(C(=O)Nc5ccc(F)cc5)CC4)cc3F)ccnc2cc1OCCCN1CCOCC1 [Foretinib] (partner 0.25 µM)
# In short: as §1
# Dovitinib + OSI-027 = compound: CN1CCN(c2ccc3nc(-c4c(N)c5c(F)cccc5[nH]c4=O)[nH]c3c2)CC1 [Dovitinib] + COc1cccc2cc(-c3nc([C@H]4CC[C@H](C(=O)O)CC4)n4ncnc(N)c34)[nH]c12 [OSI-027] (partner 0.5 µM)
# In short: as §1
# Dovitinib + Tozasertib = compound: CN1CCN(c2ccc3nc(-c4c(N)c5c(F)cccc5[nH]c4=O)[nH]c3c2)CC1 [Dovitinib] + Cc1cc(Nc2cc(N3CCN(C)CC3)nc(Sc3ccc(NC(=O)C4CC4)cc3)n2)n[nH]1 [Tozasertib] (partner 0.1 µM)
# In short: as §1
# Dovitinib + Dasatinib = compound: CN1CCN(c2ccc3nc(-c4c(N)c5c(F)cccc5[nH]c4=O)[nH]c3c2)CC1 [Dovitinib] + Cc1nc(Nc2ncc(C(=O)Nc3c(C)cccc3Cl)s2)cc(N2CCN(CCO)CC2)n1 [Dasatinib] (partner 0.075 µM)
# In short: as §1
# Dovitinib + Phenformin = compound: CN1CCN(c2ccc3nc(-c4c(N)c5c(F)cccc5[nH]c4=O)[nH]c3c2)CC1 [Dovitinib] + N=C(N)NC(=N)NCCc1ccccc1 [Phenformin] (partner 250 µM)
# In short: as §1
# Dovitinib + AZD7762 = compound: CN1CCN(c2ccc3nc(-c4c(N)c5c(F)cccc5[nH]c4=O)[nH]c3c2)CC1 [Dovitinib] + NC(=O)Nc1cc(-c2cccc(F)c2)sc1C(=O)N[C@H]1CCCNC1 [AZD7762] (partner 0.2 µM)
# In short: as §1
# Dovitinib + Pemetrexed = compound: CN1CCN(c2ccc3nc(-c4c(N)c5c(F)cccc5[nH]c4=O)[nH]c3c2)CC1 [Dovitinib] + Nc1nc2[nH]cc(CCc3ccc(C(=O)N[C@@H](CCC(=O)O)C(=O)O)cc3)c2c(=O)[nH]1 [Pemetrexed] (partner 0.2 µM)
# In short: as §1
# Dovitinib + Decitabine = compound: CN1CCN(c2ccc3nc(-c4c(N)c5c(F)cccc5[nH]c4=O)[nH]c3c2)CC1 [Dovitinib] + Nc1ncn([C@H]2C[C@H](O)[C@@H](CO)O2)c(=O)n1 [Decitabine] (partner 2 µM)
# In short: as §1
# Dovitinib + Vorinostat = compound: CN1CCN(c2ccc3nc(-c4c(N)c5c(F)cccc5[nH]c4=O)[nH]c3c2)CC1 [Dovitinib] + O=C(CCCCCCC(=O)Nc1ccccc1)NO [Vorinostat] (partner 1 µM)
# In short: as §1
# Dovitinib + Olaparib = compound: CN1CCN(c2ccc3nc(-c4c(N)c5c(F)cccc5[nH]c4=O)[nH]c3c2)CC1 [Dovitinib] + O=C(c1cc(Cc2n[nH]c(=O)c3ccccc23)ccc1F)N1CCN(C(=O)C2CC2)CC1 [Olaparib] (partner 8 µM)
# In short: as §1
cell line,measurement,setting,value
SW 900,relative viability,Dovitinib; 0.02 µM,1.11
same,relative viability,Dovitinib; 0.06325 µM,0.853
same,relative viability,Dovitinib; 0.2 µM,1.11
same,relative viability,Dovitinib; 0.6325 µM,1.04
same,relative viability,Dovitinib; 2 µM,0.952
same,relative viability,Dovitinib + Trametinib; first compound 0.02 µM,0.811
same,relative viability,Dovitinib + Trametinib; first compound 0.06325 µM,0.763
same,relative viability,Dovitinib + Trametinib; first compound 0.2 µM,1.06
same,relative viability,Dovitinib + Trametinib; first compound 0.6325 µM,0.771
same,relative viability,Dovitinib + Trametinib; first compound 2 µM,1.08
same,relative viability,Dovitinib + Palbociclib; first compound 0.02 µM,0.588
same,relative viability,Dovitinib + Palbociclib; first compound 0.06325 µM,0.632
same,relative viability,Dovitinib + Palbociclib; first compound 0.2 µM,0.615
same,relative viability,Dovitinib + Palbociclib; first compound 0.6325 µM,0.611
same,relative viability,Dovitinib + Palbociclib; first compound 2 µM,0.571
same,relative viability,Dovitinib + Luminespib; first compound 0.02 µM,0.181
same,relative viability,Dovitinib + Luminespib; first compound 0.06325 µM,0.173
same,relative viability,Dovitinib + Luminespib; first compound 0.2 µM,0.176
same,relative viability,Dovitinib + Luminespib; first compound 0.6325 µM,0.164
same,relative viability,Dovitinib + Luminespib; first compound 2 µM,0.149
same,relative viability,Dovitinib + Foretinib; first compound 0.02 µM,0.85
same,relative viability,Dovitinib + Foretinib; first compound 0.06325 µM,0.841
same,relative viability,Dovitinib + Foretinib; first compound 0.2 µM,0.919
same,relative viability,Dovitinib + Foretinib; first compound 0.6325 µM,1
same,relative viability,Dovitinib + Foretinib; first compound 2 µM,0.792
same,relative viability,Dovitinib + OSI-027; first compound 0.02 µM,0.465
same,relative viability,Dovitinib + OSI-027; first compound 0.06325 µM,0.556
same,relative viability,Dovitinib + OSI-027; first compound 0.2 µM,0.616
same,relative viability,Dovitinib + OSI-027; first compound 0.6325 µM,0.54
same,relative viability,Dovitinib + OSI-027; first compound 2 µM,0.62
same,relative viability,Dovitinib + Tozasertib; first compound 0.02 µM,0.459
same,relative viability,Dovitinib + Tozasertib; first compound 0.06325 µM,0.537
same,relative viability,Dovitinib + Tozasertib; first compound 0.2 µM,0.533
same,relative viability,Dovitinib + Tozasertib; first compound 0.6325 µM,0.582
same,relative viability,Dovitinib + Tozasertib; first compound 2 µM,0.689
same,relative viability,Dovitinib + Dasatinib; first compound 0.02 µM,0.741
same,relative viability,Dovitinib + Dasatinib; first compound 0.06325 µM,0.586
same,relative viability,Dovitinib + Dasatinib; first compound 0.2 µM,0.548
same,relative viability,Dovitinib + Dasatinib; first compound 0.6325 µM,0.546
same,relative viability,Dovitinib + Dasatinib; first compound 2 µM,0.61
same,relative viability,Dovitinib + Phenformin; first compound 0.02 µM,0.83
same,relative viability,Dovitinib + Phenformin; first compound 0.06325 µM,0.834
same,relative viability,Dovitinib + Phenformin; first compound 0.2 µM,0.478
same,relative viability,Dovitinib + Phenformin; first compound 0.6325 µM,0.618
same,relative viability,Dovitinib + Phenformin; first compound 2 µM,0.554
same,relative viability,Dovitinib + AZD7762; first compound 0.02 µM,0.591
same,relative viability,Dovitinib + AZD7762; first compound 0.06325 µM,0.62
same,relative viability,Dovitinib + AZD7762; first compound 0.2 µM,0.505
same,relative viability,Dovitinib + AZD7762; first compound 0.6325 µM,0.681
same,relative viability,Dovitinib + AZD7762; first compound 2 µM,0.615
same,relative viability,Dovitinib + Pemetrexed; first compound 0.02 µM,0.473
same,relative viability,Dovitinib + Pemetrexed; first compound 0.06325 µM,0.477
same,relative viability,Dovitinib + Pemetrexed; first compound 0.2 µM,0.476
same,relative viability,Dovitinib + Pemetrexed; first compound 0.6325 µM,0.534
same,relative viability,Dovitinib + Pemetrexed; first compound 2 µM,0.491
same,relative viability,Dovitinib + Decitabine; first compound 0.02 µM,0.395
same,relative viability,Dovitinib + Decitabine; first compound 0.06325 µM,0.456
same,relative viability,Dovitinib + Decitabine; first compound 0.2 µM,0.444
same,relative viability,Dovitinib + Decitabine; first compound 0.6325 µM,0.377
same,relative viability,Dovitinib + Decitabine; first compound 2 µM,0.444
same,relative viability,Dovitinib + Vorinostat; first compound 0.02 µM,0.699
same,relative viability,Dovitinib + Vorinostat; first compound 0.06325 µM,0.402
same,relative viability,Dovitinib + Vorinostat; first compound 0.2 µM,0.518
same,relative viability,Dovitinib + Vorinostat; first compound 0.6325 µM,0.616
same,relative viability,Dovitinib + Vorinostat; first compound 2 µM,0.493
same,relative viability,Dovitinib + Olaparib; first compound 0.02 µM,0.796
same,relative viability,Dovitinib + Olaparib; first compound 0.06325 µM,0.809
same,relative viability,Dovitinib + Olaparib; first compound 0.2 µM,0.847
same,relative viability,Dovitinib + Olaparib; first compound 0.6325 µM,0.808
same,relative viability,Dovitinib + Olaparib; first compound 2 µM,0.851

# From the supplement of paper PMC10307832
